Structures can show the parent of a compound that is named as a salt. ± gives the standard deviation of the averaged measurements.

In this assay the test system is Candida albicans SNY425 biofilm. The assay is described as follows: biofilm OD600 relative to DMSO control (fraction of DMSO control); higher = more biofilm (less inhibition). The protocol:
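C. albicans SNY425 biofilm optical density assays (OD600 of the adhered biofilm after media removal) in RPMI-MOPS pH 7.0 at 37 °C with shaking. Groups of 4 to 8 wells per compound are averaged and normalised to the average of DMSO loading control wells. Adherence inhibition was tested at 10 and 40 µM, sustained inhibition and disruption at 40 µM, and the MBIC series at 200 to 0.78 µM.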

[1] abbreviates: 0.78 µM, assay detail: sustained inhibition (MBIC series), 384-well, compound during adherence and 24 h growth.
Where [2] appears, read: 3.125 µM, assay detail: sustained inhibition (MBIC series), 384-well, compound during adherence and 24 h growth.
Setting [3] is: 10 µM, assay detail: adherence inhibition, 96-well, compound during 90 min adherence only.
The mark [4] stands for this setting: 12.5 µM, assay detail: sustained inhibition (MBIC series), 384-well, compound during adherence and 24 h growth.
Where [5] appears, read: 40 µM, assay detail: adherence inhibition, 96-well, compound during 90 min adherence only.
[6] abbreviates: 40 µM, assay detail: disruption, 384-well, compound added to 24 h mature biofilm for further 24 h.
Setting [7] is: 40 µM, assay detail: sustained inhibition, 384-well, compound during adherence and 24 h growth.
[8] abbreviates: 50 µM, assay detail: sustained inhibition (MBIC series), 384-well, compound during adherence and 24 h growth.
[9] abbreviates: 200 µM, assay detail: sustained inhibition (MBIC series), 384-well, compound during adherence and 24 h growth.

On to `COC(=O)C1=C(C)NC(C)=C(C(=O)OCC(C)C)C1c1ccccc1[N+](=O)[O-]` (centres undefined) [nisoldipine], for which the “biofilm OD600” value was determined as 0.962 under setting [1]; 1.01 under setting [2]; 0.914 under setting [3]; 0.989 under setting [4]; 0.888 under setting [5]; 1.01 ± 0.051 under setting [6]. In addition, the “biofilm OD600” value worked out at 0.65 ± 0.077 under setting [7], 0.549 under setting [8] and 0.397 under setting [9].

In the case of `Cc1cccc(Nc2ccccc2C(=O)O)c1C` [mefenamic acid], the “biofilm OD600” value worked out at 1.02 under setting [1]; 1.01 under setting [2]; 0.973 under setting [3]; 0.958 under setting [4]; 0.93 under setting [5]; 0.875 ± 0.038 under setting [6]. Further, the “biofilm OD600” value by setting is: under setting [7], 0.905 ± 0.011; under setting [8], 0.875; under setting [9], 0.714.

For `CN1CCC[C@@H]1Cc1c[nH]c2ccc(CCS(=O)(=O)c3ccccc3)cc12` [eletriptan hydrobromide], the “biofilm OD600” value was 0.99 under setting [3], 0.945 under setting [5], 1.014 ± 0.0095 under setting [6] and 1 ± 0.026 under setting [7].

Turning to `Cn1c(=O)c2c(ncn2CC(O)CO)n(C)c1=O` (centres undefined) [dyphylline], the “biofilm OD600” value under setting [3] was found to be 0.909, the “biofilm OD600” value under setting [5] came out at 0.872, the “biofilm OD600” value under setting [6] was 1.02 ± 0.046 and the “biofilm OD600” value under setting [7] is 1.02 ± 0.047.

`N[C@H](Cc1ccccc1)C(=O)O` [d-phenylalanine]: the “biofilm OD600” value is, setting by setting: under setting [3], 1; under setting [5], 1.01; under setting [6], 0.973 ± 0.034; under setting [7], 0.994 ± 0.06.

With `Cc1cnc(C(=O)O)c[n+]1[O-]` [acipimox], the “biofilm OD600” value runs as follows: under setting [3], 0.823; under setting [5], 0.56; under setting [6], 0.997 ± 0.034; under setting [7], 0.992 ± 0.029.

For the compound `CCN(CC)C(=S)SSC(=S)N(CC)CC` [disulfiram], the “biofilm OD600” value under setting [1] turned out to be 0.958; the “biofilm OD600” value under setting [2] came to 1; the “biofilm OD600” value under setting [3] turned out to be 0.991; the “biofilm OD600” value under setting [4] was determined as 1; the “biofilm OD600” value under setting [5] was determined as 0.857; the “biofilm OD600” value under setting [6] was 0.999 ± 0.012. In addition, the “biofilm OD600” value came out at 0.76 ± 0.084 under setting [7], 0.764 under setting [8] and 0.417 under setting [9].

Consider `C[C@]12C=CC(=O)C=C1CC[C@H]1[C@@H]3C[C@@H](O)[C@](O)(C(=O)CO)[C@@]3(C)C[C@H](O)[C@@]12F` [triamcinolone], for which the “biofilm OD600” value was found to be 1 under setting [3], 0.879 under setting [5], 1.03 ± 0.034 under setting [6] and 1 ± 0.014 under setting [7].

As to `Nc1ccc(S(=O)(=O)Nc2ccnn2-c2ccccc2)cc1` [Sulfaphenazole], the “biofilm OD600” value came out at 0.962 under setting [3], 0.934 under setting [5], 1.01 ± 0.017 under setting [6] and 1.01 ± 0.03 under setting [7].

As for `N[C@@H](C(=O)N[C@@H]1C(=O)N2C(C(=O)O)=C(Cl)CS[C@H]12)c1ccccc1` [cefaclor], the “biofilm OD600” value by setting is: under setting [3], 1.07; under setting [5], 0.896; under setting [6], 1.03 ± 0.028; under setting [7], 0.983 ± 0.032.

Consider `CCC(=O)Oc1ccc2c(c1)CC[C@@H]1[C@@H]2CC[C@]2(C)[C@@H](OC(=O)CC)CC[C@@H]12` [estradiol dipropionate], for which the “biofilm OD600” value was 0.958 under setting [3], 0.844 under setting [5], 0.954 ± 0.037 under setting [6] and 0.987 ± 0.012 under setting [7].

For the compound `CCCCCCOC(=O)NC(=N)c1ccc(NCc2nc3cc(C(=O)N(CCC(=O)OCC)c4ccccn4)ccc3n2C)cc1` [dabigatran etexilate mesylate], the “biofilm OD600” value came out at 0.9 under setting [1]; 0.9 under setting [2]; 1.05 under setting [3]; 0.92 under setting [4]; 0.776 under setting [5]; 0.971 ± 0.031 under setting [6]. The “biofilm OD600” value by setting is: under setting [7], 0.894 ± 0.046; under setting [8], 0.843; under setting [9], 0.628.

Regarding `CC[C@H]1OC(=O)[C@H](C)[C@@H](O[C@H]2C[C@@](C)(OC)[C@@H](O)[C@H](C)O2)[C@H](C)[C@@H](O[C@@H]2O[C@H](C)C[C@H](N(C)C)[C@H]2O)[C@](C)(O)C[C@@H](C)C(=O)[C@H](C)[C@@H](O)[C@]1(C)O` [erythromycin], the “biofilm OD600” value by setting is: under setting [3], 0.879; under setting [5], 0.874; under setting [6], 1.03 ± 0.026; under setting [7], 1.03 ± 0.017.

In the case of `COc1ccc(-c2cc(=O)c3c(O)cc(O[C@@H]4O[C@H](CO[C@@H]5O[C@@H](C)[C@H](O)[C@@H](O)[C@H]5O)[C@@H](O)[C@H](O)[C@H]4O)cc3o2)cc1O` [diosmin], the “biofilm OD600” value by setting is: under setting [3], 1; under setting [5], 0.962; under setting [6], 1.09 ± 0.14; under setting [7], 1.07 ± 0.059.

Regarding `CNCCCC1c2ccccc2C=Cc2ccccc21` [Protriptyline hydrochloride], the “biofilm OD600” value runs as follows: under setting [3], 1.05; under setting [5], 0.899; under setting [6], 1.01 ± 0.012; under setting [7], 1.02 ± 0.022.

Consider `Oc1c(Cl)cc(Cl)c2cccnc12` [chloroxine], for which the “biofilm OD600” value runs as follows: under setting [1], 1.03; under setting [2], 1.03; under setting [3], 0.788; under setting [4], 0.926; under setting [5], 0.373; under setting [6], 0.907 ± 0.031. In addition, the “biofilm OD600” value came to 0.28 ± 0.019 under setting [7], 0.333 under setting [8] and 0.268 under setting [9].

For the compound `CCN(CC)C(=O)C1(c2ccccc2)CC1CN` (centres undefined) [milnacipran hydrochloride], the “biofilm OD600” value under setting [3] is 0.934, the “biofilm OD600” value under setting [5] was 0.943, the “biofilm OD600” value under setting [6] was found to be 0.977 ± 0.026 and the “biofilm OD600” value under setting [7] worked out at 0.962 ± 0.018.

Consider `Cc1c(NC(=O)c2cccnc2)c(=O)n(-c2ccccc2)n1C` [nifenazone], for which the “biofilm OD600” value came to 0.927 under setting [3], 0.919 under setting [5], 1.004 ± 0.0086 under setting [6] and 0.968 ± 0.065 under setting [7].

Take `Nc1nc(=O)[nH]cc1F` [flucytosine]: the “biofilm OD600” value by setting is: under setting [1], 0.866; under setting [2], 0.873; under setting [3], 0.907; under setting [4], 0.862; under setting [5], 0.776; under setting [6], 0.983 ± 0.06. Moreover, the “biofilm OD600” value came out at 0.798 ± 0.066 under setting [7], 0.758 under setting [8] and 0.719 under setting [9].

On to `C[C@@H]1CC[C@H]2[C@@H](C)C(=O)O[C@@H]3O[C@@]4(C)CC[C@@H]1[C@]32OO4` [artemisinin], for which the “biofilm OD600” value runs as follows: under setting [1], 1.09; under setting [2], 1.06; under setting [3], 1.14; under setting [4], 1.01; under setting [5], 0.966; under setting [6], 0.955 ± 0.017. The “biofilm OD600” value was found to be 0.838 ± 0.019 under setting [7], 0.893 under setting [8] and 0.744 under setting [9].

Consider `CC(C)[C@H](N)C(=O)OCCOCn1cnc2c(=O)nc(N)[nH]c21` [valacyclovir hydrochloride], for which the “biofilm OD600” value by setting is: under setting [3], 1.1; under setting [5], 0.844; under setting [6], 1 ± 0.024; under setting [7], 0.982 ± 0.047.

Take `Oc1ncnc2[nH]ncc12` [Allopurinol]: the “biofilm OD600” value stood at 0.938 under setting [3], 0.887 under setting [5], 1.02 ± 0.07 under setting [6] and 0.982 ± 0.038 under setting [7].

As to `CN(C)CCC(c1ccc(Cl)cc1)c1ccccn1` (centres undefined) [chlorpheniramine maleate], the “biofilm OD600” value was found to be 1.02 under setting [3], 0.894 under setting [5], 1 ± 0.044 under setting [6] and 1.01 ± 0.026 under setting [7].

Consider `CC1OC1P(=O)(O)O` (centres undefined) [fosphomycin], for which the “biofilm OD600” value is 0.972 under setting [3], 1.04 under setting [5], 1.01 ± 0.019 under setting [6] and 0.982 ± 0.011 under setting [7].

Consider `NC(=O)NC(=O)Cc1ccccc1` [phenacemide], for which the “biofilm OD600” value by setting is: under setting [3], 1.05; under setting [5], 0.929; under setting [6], 1.015 ± 0.0049; under setting [7], 1.02 ± 0.065.

Take `COCCOC(=O)C1=C(C)NC(C)=C(C(=O)OC(C)C)C1c1cccc([N+](=O)[O-])c1` (centres undefined) [nimodipine]: the “biofilm OD600” value under setting [1] is 1.07; the “biofilm OD600” value under setting [2] is 1.06; the “biofilm OD600” value under setting [3] worked out at 0.942; the “biofilm OD600” value under setting [4] came out at 1.01; the “biofilm OD600” value under setting [5] is 0.821; the “biofilm OD600” value under setting [6] is 0.91 ± 0.029. Besides, the “biofilm OD600” value is, setting by setting: under setting [7], 0.984 ± 0.043; under setting [8], 0.987; under setting [9], 1.27.

(Values after the supplement of paper PMC7285287.)
